According to patent publication US7138242B2, “Olfactory receptor expression libraries and methods of making and using them” (Johns Hopkins University, priority 1998, dated 2006):
Entries after “also recorded” stand apart in the source; their conditions may differ.

Columns and labels:
[1] = test system: mouse olfactory receptor TM II–VII chimeric receptor library (pools of clones); test: Ca2+ imaging screen of 80 library chimeric receptors (10 pools of eight constructs) against 26 odorants in HEK-293 cells with Gα15,16; type: cell-based
Description: HEK-293 cells (obtained from the ATCC) were grown in DMEM supplemented with 10% fetal bovine serum, penicillin (100 U/ml), streptomycin (100 μg/ml) and L-glutamine (2 mM) in 5% CO2. Before transfection, the cells were seeded onto poly-L-lysine-coated 10.5×35×0.17 mm glass coverslips (Bellco) placed in the 60 mm culture dishes. Calcium phosphate-mediated transfections were performed in a 60 mm dish with 3 to 4 μg of receptor construct DNA, 1 μg of pCIS Gα 15 and Gα16 expression vector (Offermanns (1995) supra). 2 μg of pBluescript carrier DNA, and 0.3 μg of pRSV-T antigen expression vector (Gorman (1990) DNA and Protein Eng. Tech. 2:3–9). After 5 to 7 hr incubation, the cells were washed once with PBS containing 0.5 mM EDTA and 10% DMSO, then with PBS before continuing growth in regular media for 40–50 hr.
(§1) These transfected cells were then tested for their ability to functionally respond to ligand-receptor binding. The ligand, the adrenergic agonist isoproterenol, was “bath” applied to the transfected cells and single cell Ca^2+-imaging was performed. Cells were pre-loaded with the Ca^2+-sensitive fluorescent dye FURA-2 AM (Molecular Probes) by bathing in serum-free DMEM containing 4 μM of the membrane permeant chemical for 1 hr at 37° C., then washed with a standard bath solution (130 mM NaCl, 2 mM CaCl2, 5 mM KCl, 10 mM glucose, 10 mM Na.HEPES/pH 7.4 at room temperature). For each experiment, a glass coverslip with FURA-2 loaded HEK 293 cells was introduced into an open-topped, longitudinal microperfusion chamber (300 μl bath volume mounted on a Zeiss Axiovert 135 microscope equipped with an F Fluar 40×/1.30 oil-immersion lens. The cells were superfused with test solutions typically for 30 to 40 seconds (5 ml/application) and washed out with 5 ml of bath solution at the end of each application. Each test solution was freshly diluted and manually applied with a micropipette into the chamber. Because of this manual procedure, there could be several seconds of delay in actual application from electronic tick marks used to define the beginning of application in each graph. At the same time, the solution flow might not be completely laminar. In most cases, the onset of Ca2+ rise in response to a specific solution occurred within 15 seconds of the beginning of solution application, though longer delays were sometimes observed. Acetylcholine was applied at the end of each experiment at 10 μM for 15–20 seconds. Ratiometric Ca^2+ measurements were performed as described by Grynkiewicz (1985) 260:3440–3450, with modifications using the Zeiss/Attofluor-Ratiovision imaging system. At 5-second intervals, the cells were sequentially illuminated for less than 100 ms, first at 340 nm and then at 380 nm. Fluorescence emission at 510 nm was monitored for each excitation wavelength via an intensified CCD camera. Averaged pixel intensities within 40 to 100 regions of interest, corresponding to 40 to 100 individual cells, were digitized and stored on a computer. Attofluor-Ratiovision software (Atto Instruments) was used to determine the Ca^2+-dependent fluorescence signal expressed as the F340/F380 ratio.
The 7-transmembrane domain region TM II–VII expressing vector libraries of the invention were expressed in this cell expression system. Various odorant were screened for their ability to generate a physiologic response in the form of a calcium transient, as above. Eighty plasmid clones arrayed in microtiter plates were pooled into 10 groups of eight constructs each, and co-transfected with Gα15,16 into HEK-293 cells. […]

[2] = test system: I-C6 chimeric olfactory receptor (TM II–VII); test: Ca2+ imaging, individual clone I-C6 (TM II–VII chimeric) in HEK-293 cells with Gα15,16; type: cell-based, mouse; details: (−) vs (+) isomer
Description: These transfected cells were then tested for their ability to functionally respond to ligand-receptor binding. The ligand, the adrenergic agonist isoproterenol, was “bath” applied to the transfected cells and single cell Ca^2+-imaging was performed. Cells were pre-loaded with the Ca^2+-sensitive fluorescent dye FURA-2 AM (Molecular Probes) by bathing in serum-free DMEM containing 4 μM of the membrane permeant chemical for 1 hr at 37° C., then washed with a standard bath solution (130 mM NaCl, 2 mM CaCl2, 5 mM KCl, 10 mM glucose, 10 mM Na.HEPES/pH 7.4 at room temperature). […] Fluorescence emission at 510 nm was monitored for each excitation wavelength via an intensified CCD camera. […] Attofluor-Ratiovision software (Atto Instruments) was used to determine the Ca^2+-dependent fluorescence signal expressed as the F340/F380 ratio. […]

[3] = test system: full-length I-C6 receptor fused to translocation domain (rhodopsin tag); test: Ca2+ imaging, full-length I-C6 receptor with rhodopsin tag in HEK-293 cells; type: cell-based, mouse
Description: PCR products were digested with PstI and BspEI restriction enzymes before size fractionation, purification and ligation into the pCMV-Rho/M4NC vector (see FIG. 1A). The vector ligation products were transformed into E. coli and 480 clones were placed in 96-well plates. […] Pools of cells from a single column of the plates (8 wells) were grown in a 50 ml culture and plasmid DNA prepared. Insert-containing vectors containing: the 5′-untranslated region of the rhodopsin gene, which included its coding region for the initiation methionine and the next 19 residues; joined to a full-length cDNA for a mouse olfactory receptor (M4 or I-C6), under the control of the CMV promoter, were also prepared. The full-length coding region of olfactory receptors mI7 and I-C6 were obtained by screening a mouse (129 SV/J) genomic phage (λFIX-II) library (2×10^6 independent clones) using ^32P-labeled DNA fragments (of TMII through VII sequence) of the respective receptors under stringent conditions (hybridized at 0.2×SSC at 65° C.). DNA fragments encoding the full-length receptors were cloned into pBluescript (Stratagene) and sequenced.
as §1
To determine if these physiologic responses were caused by ligand interaction with a full-length 7-membrane receptor, a genomic clone of the entire I-C6 receptor coding sequence was isolated and used to make a chimeric molecule incorporating the tranlocation domain of the invention (the “rhodopsin tag” sequence). The full-length I-C6 receptor retained the same stereo-selectivity as a chimeric receptor construct whose only I-C6 sequence was the transmembrane domains II through VII (i.e., the odorant/ligand binding domain). […]

## CC(C)=CCCC(C)CC=O (single isomer, unassigned; (-)) [(−) citronellal]
[1]; 10 μM, odorants applied sequentially
  intracellular Ca2+ response of a clone pool: transient increases in Ca^2+
[1]; micromolar concentrations, three receptors, respectively
  response of a library receptor: responded
[2]
  stereo-selectivity of the Ca2+ response: selective; also recorded: preferred
[3]
  qualitative rank order of potency for binding and activating the I-C6 receptor: (−)citronellal>(+)citronellal, citronellyl bromide>28 other odorants
[3]; 1 μM
  intracellular Ca2+ response: responding
[3]; (−) vs (+) isomer
  stereo-selectivity of the Ca2+ response: preferred
[3]; applied immediately after 30 μM (+) citronellal (desensitization)
  intracellular Ca2+ response after a prior positive response: lack of response
[3]; control experiments lacking Gα15,16
  intracellular Ca2+ response: no response
